What was measured:
[1] = target: T1, Bromodomain-containing protein 4 (Homo sapiens, UniProt O60885); experiment: Inhibition of BRD4 (unknown origin)
[2] = target: T1, Bromodomain-containing protein 4; experiment: Inhibition of human BRD4 bromo domain 2 at 0.5 uM
[3] = target: T1, Bromodomain-containing protein 4; experiment: Inhibition of human BRD4 bromo domain 2 at 5 uM
OCI-AML-3 = experiment: cells; type: functional, cell-based; conditions: Homo sapiens, OCI-AML-3, 72 h
Description: Antiproliferative activity against human OCI-AML3 cells after 72 hrs by MTT assay

MV4-11 = experiment: cells; type: functional, cell-based; conditions: Homo sapiens, MV4-11, 72 h
Description: Antiproliferative activity against human MV4-11 cells after 72 hrs by MTT assay

OCI-AML2 = experiment: cells; type: functional, cell-based; conditions: Homo sapiens, OCI-AML2, 72 h
Description: Antiproliferative activity against human OCI-AML2 cells after 72 hrs by MTT assay

Histone deacetylase 1 = Histone deacetylase 1 (Homo sapiens, UniProt Q13547); experiment: Inhibition of recombinant human HDAC1 after 30 mins by fluorescence assay
Histone deacetylase 1, sequence (Q13547 whole entry, the tested form may be a part): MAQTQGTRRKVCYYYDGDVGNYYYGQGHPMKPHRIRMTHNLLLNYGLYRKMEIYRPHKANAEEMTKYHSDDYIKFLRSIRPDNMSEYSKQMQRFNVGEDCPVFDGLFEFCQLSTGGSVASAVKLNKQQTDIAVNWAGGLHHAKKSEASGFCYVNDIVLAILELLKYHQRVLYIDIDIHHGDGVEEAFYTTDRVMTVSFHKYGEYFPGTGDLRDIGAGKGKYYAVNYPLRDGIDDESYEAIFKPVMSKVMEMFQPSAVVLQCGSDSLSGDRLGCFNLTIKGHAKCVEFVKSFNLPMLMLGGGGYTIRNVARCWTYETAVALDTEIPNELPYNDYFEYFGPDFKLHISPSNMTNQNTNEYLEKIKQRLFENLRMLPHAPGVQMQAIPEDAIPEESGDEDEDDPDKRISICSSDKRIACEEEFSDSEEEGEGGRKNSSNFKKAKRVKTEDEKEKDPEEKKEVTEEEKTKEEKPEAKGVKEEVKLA

[4] = target: T1, Bromodomain-containing protein 4; experiment: Inhibition of human BRD4 bromo domain 1
[5] = target: T1, Bromodomain-containing protein 4; experiment: Inhibition of human BRD4 bromo domain 2

SMILES	IC50 [1]	inhibition [2]	inhibition [3]	IC50 (OCI-AML-3)	IC50 (MV4-11)	IC50 (OCI-AML2)	IC50 (Histone deacetylase 1)	IC50 [4]	IC50 [5]
O=C(CCCCCCC(=O)Nc1ccccc1)NO [VORINOSTAT]	0.01 µM	2%	10%	–	–	–	–	–	–
Cc1[nH]c2ccccc2c1CCNCc1ccc(/C=C/C(=O)NO)cc1 [PANOBINOSTAT]	0.005 µM	–	–	–	–	–	–	–	–
COc1cc(OC)c2c(=O)[nH]c(-c3cc(C)c(O)c(C)c3)nc2c1	–	87%	98%	–	–	–	–	–	–
COc1cc(OC)c2c(=O)[nH]c(-c3cc(C)c(OCCO)c(C)c3)nc2c1 [APABETALONE]	–	–	–	7.17 µM	4.48 µM	8.31 µM	–	–	–
COc1cc(OC)c2c(=O)[nH]c(-c3cc(C)c(OCCCC(=O)NO)c(C)c3)nc2c1	–	42%	90%	5.53 µM	5 µM	4.53 µM	–	–	–
COc1cc(OC)c2c(=O)[nH]c(-c3cc(C)c(OCc4ccc(/C=C/C(=O)NO)cc4)c(C)c3)nc2c1	–	62%	83%	0.43 µM	0.56 µM	0.38 µM	0.204 µM	> 5 µM	0.401 µM
COc1cc(OC)c2c(=O)[nH]c(-c3ccc(OCCCCC(=O)NO)cc3)nc2c1	–	–	–	9.31 µM	9.88 µM	12.2 µM	–	–	–
C/C=C1\NC(=O)[C@H]2CSSCC/C=C/[C@H](CC(=O)N[C@H](C(C)C)C(=O)N2)OC(=O)[C@H](C(C)C)NC1=O [ROMIDEPSIN]	0.036 µM	–	–	–	–	–	–	–	–
COc1cc(OC)c2c(=O)[nH]c(-c3cc(C)c(OCCCCCCCC(=O)NO)c(C)c3)nc2c1	–	59%	99%	1.83 µM	2.22 µM	2.21 µM	–	–	–
COc1cc(OC)c2c(=O)[nH]c(-c3cc(C)c(OC/C=C/C(=O)NO)c(C)c3)nc2c1	–	41%	93%	–	–	–	–	–	–
COc1cc(OC)c2c(=O)[nH]c(-c3cc(C)c(Oc4ccc(C(=O)NO)cn4)c(C)c3)nc2c1	–	51%	93%	3.04 µM	1.39 µM	6.36 µM	–	–	–
COc1cc(OC)c2c(=O)[nH]c(-c3ccc(OCc4ccc(/C=C/C(=O)NO)cc4)cc3)nc2c1	–	–	–	1.8 µM	1.97 µM	1.78 µM	–	–	–
COc1cc(OC)c2c(=O)[nH]c(-c3cc(C)c(OCCCCCC(=O)NO)c(C)c3)nc2c1	–	90%	97%	0.67 µM	0.92 µM	0.98 µM	–	–	–
COc1cc(OC)c2c(=O)[nH]c(-c3cc(C)c(OCCCCCCC(=O)NO)c(C)c3)nc2c1	–	29%	88%	–	–	–	–	–	–
COc1cc(OC)c2c(=O)[nH]c(-c3ccc(OCCCCCC(=O)NO)cc3)nc2c1	–	–	–	11.1 µM	4.28 µM	13.6 µM	–	–	–
COc1cc(OC)c2c(=O)[nH]c(-c3cc(C)c(OCCCCC(=O)NO)c(C)c3)nc2c1	–	73%	91%	1.09 µM	1.67 µM	1.52 µM	0.032 µM	> 5 µM	0.225 µM

Source: ChEMBL document CHEMBL4043137, “Structure-based design, synthesis and in vitro antiproliferative effects studies of novel dual BRD4/HDAC inhibitors” (Bioorg Med Chem Lett, 2017)
